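Test compounds were applied to cells in 96-well plates for 48 hours at 5 doses. TGI: concentration producing complete growth inhibition.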
Assays:
Assay in all cases: growth of human tumour cells (NCI), 48 h
[1] = system: 786-0 renal
[2] = system: A498 renal
[3] = system: A549 NSCLC
[4] = system: ACHN renal
[5] = system: BT-549 breast
[6] = system: CAKI-1 renal
[7] = system: CCRF-CEM leukemia
[8] = system: COLO 205 colon
[9] = system: DU-145 prostate
[10] = system: EKVX NSCLC
[11] = system: HCC-2998 colon
[12] = system: HCT-116 colon
[13] = system: HCT-15 colon
[14] = system: HL-60(TB) leukemia
[15] = system: HOP-62 NSCLC
[16] = system: HOP-92 NSCLC
[17] = system: HS 578T breast
[18] = system: HT29 colon
[19] = system: IGROV1 ovarian
[20] = system: K-562 leukemia
[21] = system: KM12 colon
[22] = system: LOX IMVI melanoma
[23] = system: M14 melanoma
[24] = system: MALME-3M melanoma
[25] = system: MCF7 breast
[26] = system: MDA-MB-231 breast
[27] = system: MDA-MB-435
[28] = system: MDA-N
[29] = system: MOLT-4 leukemia
[30] = system: NCI-H226 lung
[31] = system: NCI-H23 lung
[32] = system: NCI-H460 lung
[33] = system: NCI-H522 lung
[34] = system: NCI/ADR-RES ovarian
[35] = system: OVCAR-3 ovarian
[36] = system: OVCAR-4 ovarian
[37] = system: OVCAR-5 ovarian
[38] = system: OVCAR-8 ovarian
[39] = system: PC-3 prostate
[40] = system: RPMI-8226 leukemia
[41] = system: RXF 393 renal
[42] = system: SF-268 CNS
[43] = system: SF-295 CNS
[44] = system: SF-539 CNS
[45] = system: SK-MEL-2 melanoma
[46] = system: SK-MEL-28 melanoma
[47] = system: SK-MEL-5 melanoma
[48] = system: SK-OV-3 ovarian
[49] = system: SN12C renal
[50] = system: SNB-19 CNS
[51] = system: SR leukemia
[52] = system: SW-620 colon
[53] = system: T-47D breast
[54] = system: TK-10 renal
[55] = system: U251 CNS
[56] = system: UACC-257 melanoma
[57] = system: UACC-62 melanoma
[58] = system: UO-31 renal
[59] = system: SNB-75 CNS
[60] = system: DLD-1 colon
[61] = system: DMS 114 small cell lung
[62] = system: DMS 273 small cell lung
[63] = system: KM20L2 colon
[64] = system: LXFL 529 NSCLC
[65] = system: M19-MEL melanoma
[66] = system: SNB-78 CNS

Measured: TGI

C/C(=N\N=C1/C(=O)OC(c2ccccc2)=C1C(=O)c1ccccc1)c1ccc([N+](=O)[O-])cc1
75.1 µM: [7]
83.5 µM: [33]
48.9 µM: [40]
52.7 µM: [29]
79.4 µM: [30]
72.6 µM: [5]
67.6 µM: [13]
83.3 µM: [16]
34.6 µM: [51]
not listed: [59] | [60] | [61] | [62] | [63] | [64] | [65] | [66]
> 100 µM: all other assays above

O=S(=O)(O)C(CO)c1ccccc1 (stereo not drawn) (tested in a mixture with another compound)
> 44.5 µM: [14]
not listed: [60] | [61] | [62] | [63] | [64] | [65] | [66]
> 100 µM: all other assays above

Cc1c2n(c(=O)[nH]c1=O)C1OC(CO)C(N=[N+]=[N-])C1O2 (stereo not drawn)
not listed: [5] | [9] | [11] | [17] | [23] | [24] | [25] | [26] | [27] | [28] | [34] | [37] | [39] | [53]
> 100 µM: all other assays above

CC1CC2CCCC(O)=C2C(=O)O1 (stereo not drawn)
> 64.8 µM: [50]
not listed: [60] | [61] | [62] | [63] | [64] | [65] | [66]
> 100 µM: all other assays above

Source: PubChem BioAssay (NCI)
